From patent publication US20190183959A1, “COMPOSITIONS, KITS AND METHODS FOR TREATING TYPE II DIABETES MELLITUS” (VITNOVO, INC., priority 2017, published 2019)

Test system: NIDDM mice
Test: Oral glucose tolerance test after 28 days of oral dosing in NIDDM db/db mice (Example 2)
Type: in vivo, mouse
Settings: HC extract 80 mg/Kg, sitagliptin 40 mg/Kg, p.o.
Method: Non-insulin dependent diabetic mellitus (NIDDM) male db/db (BKS.Cg-Dock 7^m+/+Lepr^db/JNarl) were used in the present study. They were supplied by National Laboratory Animal Center (NLAC) (Taipei, Taiwan) or by Jackson Laboratory (Bar Harbor, Me., USA). […] In Example 2, test compounds (i.e., HC extract (40 mg/Kg from day 1 to day 14; 80 mg/Kg from day 14 to day 28, p.o.), sitagliptin (40 mg/Kg, p.o.), or the combination of HC extract and sitagliptin) at the designated dose was fed to each mice by oral gavage from day 1, and continued for 27 consecutive days to day 28. […] Blood glucose, insulin, glucagon, glycated haemoglobin (HbA1c) levels were measured on designated days after overnight fasting. Then, oral glucose tolerance test (OGTT) was performed to evaluate effects of respective treatments on glucose homeostasis. Body weight of each test animal was also measured during the study period. The db/db mice were randomly divided into 4 groups: (1) the vehicle control group, (2) the HC extract (80 mg/kg), (3) the sitagliptin (40 mg/Kg) group, and […] the HC extract (80 mg/kg)+sitagliptin (40 mg/Kg) group. The mice were fasted for 5 hours and then respectively received the indicated treatments. […] The animals were treated by the manner described in the “Material and Methods” section.

N[C@@H](CC(=O)N1CCn2c(nnc2C(F)(F)F)C1)Cc1cc(F)c(F)cc1F [sitagliptin]
reduction in the level of total blood glucose (FIG. 3) (30 minutes time point post glucose treatment): about 11.3%
effect on fasting blood glucose level (FIG. 2) (combination judged 30 minutes post glucose treatment vs either alone): reduction in the fasting blood glucose level
